Data published in US10919841B2, “Monoamine reuptake inhibitors” (Research Triangle Institute, priority 2009, dated 2021).

Target: T1, (h)NET (Homo sapiens, UniProt P23975)
Test: competition binding with [125I]RTI-55 at (h)NET stably expressed in HEK293 cells
Settings: read-out: Binding, Ki NET; mean ± standard error of three independent experiments

T1 sequence (P23975 whole entry): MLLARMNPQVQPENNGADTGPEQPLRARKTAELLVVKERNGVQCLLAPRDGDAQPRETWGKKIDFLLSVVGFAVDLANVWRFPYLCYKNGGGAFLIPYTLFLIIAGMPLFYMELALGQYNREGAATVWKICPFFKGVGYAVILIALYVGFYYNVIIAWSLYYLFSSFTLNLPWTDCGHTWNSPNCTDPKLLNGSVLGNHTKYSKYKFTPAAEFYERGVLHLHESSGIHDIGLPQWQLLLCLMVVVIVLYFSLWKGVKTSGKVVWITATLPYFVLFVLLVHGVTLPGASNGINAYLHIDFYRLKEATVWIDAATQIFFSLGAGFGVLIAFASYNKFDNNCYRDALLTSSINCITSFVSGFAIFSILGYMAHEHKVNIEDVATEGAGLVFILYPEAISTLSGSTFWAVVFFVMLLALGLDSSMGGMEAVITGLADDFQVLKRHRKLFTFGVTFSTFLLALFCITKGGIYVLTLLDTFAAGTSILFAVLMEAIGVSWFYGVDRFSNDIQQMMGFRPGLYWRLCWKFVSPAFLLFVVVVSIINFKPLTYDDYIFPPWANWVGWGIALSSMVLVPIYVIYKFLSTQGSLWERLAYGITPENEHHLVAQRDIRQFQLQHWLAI

Row | SMILES | Ki
1 | CCN(CC)C(C)C(=O)c1cccc(Cl)c1 (stereo not shown) [Compound 2ee, 2-(N,N-Diethylamino)-3′-chloropropiophenone] | 4.48 µM

Test system: mice
Test: locomotor activity, 1-h observation protocol
Assay type: in vivo
Settings: Mus musculus, 0.5 h, read-out: Locomotor Activity 1-Hour % Peak Cocaine

Row | SMILES | Emax
2 | CCN(CC)C(C)C(=O)c1cccc(Cl)c1 (stereo not shown) [Compound 2ee, 2-(N,N-Diethylamino)-3′-chloropropiophenone] | 55%
3 | CC(NC(C)(C)C)C(=O)c1cccc(Br)c1 (stereo not shown) [Compound 2d, 2-(N-tert-Butylamino)-3′-bromopropiophenone] | 72%
4 | Cc1cccc(C(=O)C(C)NC(C)(C)C)c1 (stereo not shown) [Compound 2e, 2-(N-tert-Butylamino)-3′-methylpropiophenone] | 76%
5 | CC(NC(C)(C)C)C(=O)c1cc(F)cc(F)c1 (stereo not shown) [Compound 2m, 2-(tert-Butylamino)-3′,5′-difluoropropiophenone] | 93%
6 | CC(C(=O)c1cccc(Cl)c1)N(C)C(C)(C)C (stereo not shown) [Compound 2cc, 2-(N-Methyl-N-tert-butylamino)-3′-chloropropiophenone] | 78%
7 | CC(NC(C)(C)C)C(=O)c1cccc(F)c1 (stereo not shown) [Compound 2c, 2-(tert-Butylamino)-3′-fluoropropiophenone] | 84%

Same assay, conditions: Mus musculus; dose to produce 50% of the compound's maximal effect; 1-h

Row | SMILES | ED50
8 | CCN(CC)C(C)C(=O)c1cccc(Cl)c1 (stereo not shown) [Compound 2ee, 2-(N,N-Diethylamino)-3′-chloropropiophenone] | 16.6 mg/kg
9 | CC(NC(C)(C)C)C(=O)c1cccc(Br)c1 (stereo not shown) [Compound 2d, 2-(N-tert-Butylamino)-3′-bromopropiophenone] | 10.6 mg/kg
10 | Cc1cccc(C(=O)C(C)NC(C)(C)C)c1 (stereo not shown) [Compound 2e, 2-(N-tert-Butylamino)-3′-methylpropiophenone] | 31 mg/kg
11 | CC(NC(C)(C)C)C(=O)c1cc(F)cc(F)c1 (stereo not shown) [Compound 2m, 2-(tert-Butylamino)-3′,5′-difluoropropiophenone] | 39.7 mg/kg
12 | CC(C(=O)c1cccc(Cl)c1)N(C)C(C)(C)C (stereo not shown) [Compound 2cc, 2-(N-Methyl-N-tert-butylamino)-3′-chloropropiophenone] | 14.9 mg/kg
13 | CC(NC(C)(C)C)C(=O)c1cccc(F)c1 (stereo not shown) [Compound 2c, 2-(tert-Butylamino)-3′-fluoropropiophenone] | 16.1 mg/kg

Test system: rats
Test: cocaine discrimination time-course study, oral administration
Settings: Rattus norvegicus, po, 0.75 h

Row | SMILES | ED50
14 | CC(NC(C)(C)C)C(=O)c1cccc(Br)c1 (stereo not shown) [Compound 2d, 2-(N-tert-Butylamino)-3′-bromopropiophenone] | 52.4 mg/kg
15 | CC(NC(C)(C)C)C(=O)c1cc(F)cc(F)c1 (stereo not shown) [Compound 2m, 2-(tert-Butylamino)-3′,5′-difluoropropiophenone] | 43.6 mg/kg
16 | CC(NC(C)(C)C)C(=O)c1cccc(F)c1 (stereo not shown) [Compound 2c, 2-(tert-Butylamino)-3′-fluoropropiophenone] | 27.1 mg/kg

Target: T2, (h)DAT (Homo sapiens, UniProt Q01959)
T2 construct: expressed in transfected cells
Test: competition binding with [125I]RTI-55 at (h)DAT stably expressed in HEK293 cells
Settings: mean ± standard error of three independent experiments

T2 sequence (Q01959 whole entry): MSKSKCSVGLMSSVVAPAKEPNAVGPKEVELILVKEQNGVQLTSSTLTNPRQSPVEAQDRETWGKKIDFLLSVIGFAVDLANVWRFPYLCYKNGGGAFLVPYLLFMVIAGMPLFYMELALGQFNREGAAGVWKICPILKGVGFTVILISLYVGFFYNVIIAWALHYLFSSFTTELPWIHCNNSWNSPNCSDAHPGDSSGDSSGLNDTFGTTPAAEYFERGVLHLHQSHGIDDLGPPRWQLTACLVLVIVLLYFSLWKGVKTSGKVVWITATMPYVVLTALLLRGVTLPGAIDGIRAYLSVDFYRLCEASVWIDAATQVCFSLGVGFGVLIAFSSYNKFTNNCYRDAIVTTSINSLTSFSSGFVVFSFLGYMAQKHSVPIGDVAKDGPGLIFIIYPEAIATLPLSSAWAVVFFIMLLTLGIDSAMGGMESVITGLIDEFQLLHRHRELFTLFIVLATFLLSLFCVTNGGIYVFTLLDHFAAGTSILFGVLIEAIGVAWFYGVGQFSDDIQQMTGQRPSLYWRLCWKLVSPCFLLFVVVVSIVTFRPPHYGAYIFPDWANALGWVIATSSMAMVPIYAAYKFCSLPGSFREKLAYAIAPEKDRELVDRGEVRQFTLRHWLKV

Row | SMILES | Ki
17 | CCN(CC)C(C)C(=O)c1cccc(Cl)c1 (stereo not shown) [Compound 2ee, 2-(N,N-Diethylamino)-3′-chloropropiophenone] | 2.21 µM
18 | CC(NC(C)(C)C)C(=O)c1cccc(Br)c1 (stereo not shown) [Compound 2d, 2-(N-tert-Butylamino)-3′-bromopropiophenone] | 4.2 µM
19 | CC(NC(C)(C)C)C(=O)c1cc(F)cc(F)c1 (stereo not shown) [Compound 2m, 2-(tert-Butylamino)-3′,5′-difluoropropiophenone] | 5.66 µM
20 | CC(C(=O)c1cccc(Cl)c1)N(C)C(C)(C)C (stereo not shown) [Compound 2cc, 2-(N-Methyl-N-tert-butylamino)-3′-chloropropiophenone] | 6.4 µM
21 | CC(NC(C)(C)C)C(=O)c1cccc(F)c1 (stereo not shown) [Compound 2c, 2-(tert-Butylamino)-3′-fluoropropiophenone] | 4.51 µM

Test system: mice
Test: locomotor activity, 8-h time course protocol
Assay type: in vivo
Settings: 1-h and 8-h tests compared

Row | SMILES | locomotor stimulant activity across the 1-h and 8-h protocols, in words
22 | CCN(CC)C(C)C(=O)c1cccc(Cl)c1 (stereo not shown) [Compound 2ee, 2-(N,N-Diethylamino)-3′-chloropropiophenone] | moderate activity in the 1-h test with increased activity in the time-course study
23 | CC(NC(C)(C)C)C(=O)c1cccc(Br)c1 (stereo not shown) [Compound 2d, 2-(N-tert-Butylamino)-3′-bromopropiophenone] | weak stimulants in both tests
24 | CC(NC(C)(C)C)C(=O)c1cc(F)cc(F)c1 (stereo not shown) [Compound 2m, 2-(tert-Butylamino)-3′,5′-difluoropropiophenone] | strong stimulants in both studies
25 | CC(C(=O)c1cccc(Cl)c1)N(C)C(C)(C)C (stereo not shown) [Compound 2cc, 2-(N-Methyl-N-tert-butylamino)-3′-chloropropiophenone] | weak stimulants in both tests
26 | CC(NC(C)(C)C)C(=O)c1cccc(F)c1 (stereo not shown) [Compound 2c, 2-(tert-Butylamino)-3′-fluoropropiophenone] | strong stimulants in both studies

Same assay, conditions: Mus musculus, read-out: Locomotor Activity 8-Hour % Peak Cocaine, percent of cocaine's maximal effect, 30 min period of maximum stimulation

Row | SMILES | Emax
27 | CCN(CC)C(C)C(=O)c1cccc(Cl)c1 (stereo not shown) [Compound 2ee, 2-(N,N-Diethylamino)-3′-chloropropiophenone] | 90%
28 | CC(NC(C)(C)C)C(=O)c1cccc(Br)c1 (stereo not shown) [Compound 2d, 2-(N-tert-Butylamino)-3′-bromopropiophenone] | 57%
29 | CC(NC(C)(C)C)C(=O)c1cc(F)cc(F)c1 (stereo not shown) [Compound 2m, 2-(tert-Butylamino)-3′,5′-difluoropropiophenone] | 95%
30 | CC(C(=O)c1cccc(Cl)c1)N(C)C(C)(C)C (stereo not shown) [Compound 2cc, 2-(N-Methyl-N-tert-butylamino)-3′-chloropropiophenone] | 67%
31 | CC(NC(C)(C)C)C(=O)c1cccc(F)c1 (stereo not shown) [Compound 2c, 2-(tert-Butylamino)-3′-fluoropropiophenone] | 90%

Same assay, conditions: Mus musculus; dose to produce 50% of the compound's maximal effect; 8-h; read-out: Locomotor Activity 8-Hour ED50

Row | SMILES | ED50
32 | CCN(CC)C(C)C(=O)c1cccc(Cl)c1 (stereo not shown) [Compound 2ee, 2-(N,N-Diethylamino)-3′-chloropropiophenone] | 20 mg/kg
33 | CC(NC(C)(C)C)C(=O)c1cccc(Br)c1 (stereo not shown) [Compound 2d, 2-(N-tert-Butylamino)-3′-bromopropiophenone] | 12.9 mg/kg
34 | CC(NC(C)(C)C)C(=O)c1cc(F)cc(F)c1 (stereo not shown) [Compound 2m, 2-(tert-Butylamino)-3′,5′-difluoropropiophenone] | 33.7 mg/kg
35 | CC(C(=O)c1cccc(Cl)c1)N(C)C(C)(C)C (stereo not shown) [Compound 2cc, 2-(N-Methyl-N-tert-butylamino)-3′-chloropropiophenone] | 11.2 mg/kg
36 | CC(NC(C)(C)C)C(=O)c1cccc(F)c1 (stereo not shown) [Compound 2c, 2-(tert-Butylamino)-3′-fluoropropiophenone] | 16.6 mg/kg

Same assay, conditions: duration of locomotor activity

Row | SMILES | Locomotor Activity 8-Hour Time, min Period, length
37 | CCN(CC)C(C)C(=O)c1cccc(Cl)c1 (stereo not shown) [Compound 2ee, 2-(N,N-Diethylamino)-3′-chloropropiophenone] | 130 to 240 min
38 | CC(NC(C)(C)C)C(=O)c1cccc(Br)c1 (stereo not shown) [Compound 2d, 2-(N-tert-Butylamino)-3′-bromopropiophenone] | 120 min
39 | CC(NC(C)(C)C)C(=O)c1cc(F)cc(F)c1 (stereo not shown) [Compound 2m, 2-(tert-Butylamino)-3′,5′-difluoropropiophenone] | 280 min
40 | CC(C(=O)c1cccc(Cl)c1)N(C)C(C)(C)C (stereo not shown) [Compound 2cc, 2-(N-Methyl-N-tert-butylamino)-3′-chloropropiophenone] | 200 to 340 min
41 | CC(NC(C)(C)C)C(=O)c1cccc(F)c1 (stereo not shown) [Compound 2c, 2-(tert-Butylamino)-3′-fluoropropiophenone] | 150 min

Same assay, conditions: time period of maximum effect

Row | SMILES | Locomotor Activity 8-Hour Time, min Period, max
42 | CCN(CC)C(C)C(=O)c1cccc(Cl)c1 (stereo not shown) [Compound 2ee, 2-(N,N-Diethylamino)-3′-chloropropiophenone] | 20 to 50 min
43 | CC(NC(C)(C)C)C(=O)c1cccc(Br)c1 (stereo not shown) [Compound 2d, 2-(N-tert-Butylamino)-3′-bromopropiophenone] | 0 to 30 min
44 | CC(NC(C)(C)C)C(=O)c1cc(F)cc(F)c1 (stereo not shown) [Compound 2m, 2-(tert-Butylamino)-3′,5′-difluoropropiophenone] | 0 to 30 min
45 | CC(C(=O)c1cccc(Cl)c1)N(C)C(C)(C)C (stereo not shown) [Compound 2cc, 2-(N-Methyl-N-tert-butylamino)-3′-chloropropiophenone] | 80 to 110 min
46 | CC(NC(C)(C)C)C(=O)c1cccc(F)c1 (stereo not shown) [Compound 2c, 2-(tert-Butylamino)-3′-fluoropropiophenone] | 0 to 30 min

Target: T1, (h)NET
Test: block of [3H]norepinephrine reuptake in HEK-(h)NET cells
Settings: read-out: Uptake, IC50 [3H]NE; mean ± standard error of three independent experiments

Row | SMILES | IC50
47 | CCN(CC)C(C)C(=O)c1cccc(Cl)c1 (stereo not shown) [Compound 2ee, 2-(N,N-Diethylamino)-3′-chloropropiophenone] | 4.6 µM
48 | CC(NC(C)(C)C)C(=O)c1cccc(Br)c1 (stereo not shown) [Compound 2d, 2-(N-tert-Butylamino)-3′-bromopropiophenone] | 6.5 µM

Test system: rats
Test: cocaine discrimination (2-lever operant), i.p. administration
Settings: Rattus norvegicus, ip, read-out: % cocaine lever responding

Row | SMILES | responders at 5 mg/kg | responders at 10 mg/kg | responders at 25 mg/kg | responders at 50 mg/kg
49 | CCN(CC)C(C)C(=O)c1cccc(Cl)c1 (stereo not shown) [Compound 2ee, 2-(N,N-Diethylamino)-3′-chloropropiophenone] | 1% | 66% | 82% | –
50 | CC(NC(C)(C)C)C(=O)c1cccc(Br)c1 (stereo not shown) [Compound 2d, 2-(N-tert-Butylamino)-3′-bromopropiophenone] | 1% | 27% | 83% | –
51 | CC(NC(C)(C)C)C(=O)c1cc(F)cc(F)c1 (stereo not shown) [Compound 2m, 2-(tert-Butylamino)-3′,5′-difluoropropiophenone] | – | 17% | 50% | 83%
52 | CC(C(=O)c1cccc(Cl)c1)N(C)C(C)(C)C (stereo not shown) [Compound 2cc, 2-(N-Methyl-N-tert-butylamino)-3′-chloropropiophenone] | 0% | 49% | 50% | –
53 | CC(NC(C)(C)C)C(=O)c1cccc(F)c1 (stereo not shown) [Compound 2c, 2-(tert-Butylamino)-3′-fluoropropiophenone] | 1% | 0% | 50% | 10%

Same assay, conditions: Rattus norvegicus, ip, read-out: Full Generalization ED50

Row | SMILES | ED50
54 | CCN(CC)C(C)C(=O)c1cccc(Cl)c1 (stereo not shown) [Compound 2ee, 2-(N,N-Diethylamino)-3′-chloropropiophenone] | 5.88 mg/kg
55 | CC(NC(C)(C)C)C(=O)c1cccc(Br)c1 (stereo not shown) [Compound 2d, 2-(N-tert-Butylamino)-3′-bromopropiophenone] | 11.4 mg/kg
56 | CC(NC(C)(C)C)C(=O)c1cc(F)cc(F)c1 (stereo not shown) [Compound 2m, 2-(tert-Butylamino)-3′,5′-difluoropropiophenone] | 17.9 mg/kg
57 | CC(NC(C)(C)C)C(=O)c1cccc(F)c1 (stereo not shown) [Compound 2c, 2-(tert-Butylamino)-3′-fluoropropiophenone] | 10.8 mg/kg

Target: T2, (h)DAT
Test: block of [3H]dopamine reuptake in HEK-(h)DAT cells
Assay type: cell-based
Settings: [3H]DA; read-out: IC50 for DA uptake inhibition

Row | SMILES | IC50
58 | CC(NC(C)(C)C)C(=O)c1cccc(Br)c1 (stereo not shown) [Compound 2d, 2-(N-tert-Butylamino)-3′-bromopropiophenone] | 950 nM

Same assay, conditions: mean ± standard error of three independent experiments; read-out: Uptake, IC50 [3H]DA

Row | SMILES | IC50
59 | CCN(CC)C(C)C(=O)c1cccc(Cl)c1 (stereo not shown) [Compound 2ee, 2-(N,N-Diethylamino)-3′-chloropropiophenone] | 1740 nM
60 | CC(NC(C)(C)C)C(=O)c1cc(F)cc(F)c1 (stereo not shown) [Compound 2m, 2-(tert-Butylamino)-3′,5′-difluoropropiophenone] | 5600 nM
61 | CC(C(=O)c1cccc(Cl)c1)N(C)C(C)(C)C (stereo not shown) [Compound 2cc, 2-(N-Methyl-N-tert-butylamino)-3′-chloropropiophenone] | 2060 nM
62 | CC(NC(C)(C)C)C(=O)c1cccc(F)c1 (stereo not shown) [Compound 2c, 2-(tert-Butylamino)-3′-fluoropropiophenone] | 1460 nM
